Assay results taken from ChEMBL document CHEMBL4346665, “Synthesis and evaluation of tetrahydroquinolin-2(1H)-one derivatives as novel anti-pancreatic cancer agents via targeting autophagy” (Eur J Med Chem, 2019).

Assays:
Details in all cases: PANC-1, 24 h
PANC-1 [1] = experiment: Growth inhibition of human PANC1 cells in nutrient-deprived medium at 10 uM incubated for 24 hrs by MTT assay (reference value: 0.0 +/- 1.9%); format: functional
PANC-1 [2] = experiment: Growth inhibition of human PANC1 cells in nutrient-rich medium at 10 uM incubated for 24 hrs by MTT assay (reference value: 0.0 +/- 3.8%); format: functional
PANC-1 [3] = experiment: Growth inhibition of human PANC1 cells in nutrient-deprived medium incubated for 24 hrs by MTT assay; format: functional, cell-based

Structure (SMILES) | inhibition at 10 µM (PANC-1 [1]) | inhibition at 10 µM (PANC-1 [2]) | IC50 (PANC-1 [3])
CC(C)=CCC1Cc2c(OCCCNC(=O)c3ccc([N+](=O)[O-])cc3)cc(=O)n(CCCO)c2CC1(C)C (stereo not given) | 49.9% | 9.1% | 
CC(C)=CCC/C(C)=C/CC1Cc2c(OCc3ccccc3)cc(=O)n(CCCO)c2CC1(C)C (stereo not given) | 46.5% | 1.5% | 
CC(C)=CCC/C(C)=C/CC1Cc2c(OCCCNS(=O)(=O)c3ccc([N+](=O)[O-])cc3)cc(=O)n(CCCO)c2CC1(C)C (stereo not given) | 7.4% | 0% | 
COc1ccc(OCCCOc2cc(=O)n(CCCO)c3c2CC(CC=C(C)C)C(C)(C)C3)cc1 (stereo not given) | 47.7% | 4.1% | 
CC(C)=CCC1Cc2c(OC(=O)Nc3ccc(Cl)c(Cl)c3)cc(=O)n(CCCO)c2CC1(C)C (stereo not given) | 61.4% | 1.8% | 
COc1ccc(NC(=O)Oc2cc(=O)n(CCCO)c3c2CC(C/C=C(\C)CCC=C(C)C)C(C)(C)C3)cc1 (stereo not given) | 64.1% | 0% | 7.1 µM
CC(C)=CCC/C(C)=C/CC1Cc2c(OCCCNC(=O)c3ccco3)cc(=O)n(CCCO)c2CC1(C)C (stereo not given) | 69.5% | 2.8% | 5.2 µM
CC(C)=CCC1Cc2c(OCCCOc3ccc([N+](=O)[O-])cc3)cc(=O)n(CCCO)c2CC1(C)C (stereo not given) | 47.5% | 0% | 
CCOc1cc(=O)n(CCCO)c2c1CC(C/C=C(\C)CCC=C(C)C)C(C)(C)C2 (stereo not given) | 67.8% | 0.8% | 5.8 µM
CC(C)=CCC1Cc2c(OCCCNS(=O)(=O)c3ccc(Cl)cc3)cc(=O)n(CCCO)c2CC1(C)C (stereo not given) | 24.7% | 9.8% | 
CC(C)=CCC/C(C)=C/CC1Cc2c(O)cc(=O)n(CCCO)c2CC1(C)C (stereo not given) | 28.7% | 0% | 
COc1ccc(OCCCOc2cc(=O)n(CCCO)c3c2CC(C/C=C(\C)CCC=C(C)C)C(C)(C)C3)cc1 (stereo not given) | 20% | 0% | 
CC(C)=CCC/C(C)=C/CC1Cc2c(OCCCNC(=O)c3ccc([N+](=O)[O-])cc3)cc(=O)n(CCCO)c2CC1(C)C (stereo not given) | 16.8% | 6.5% | 
CC(C)=CCC1Cc2c(OCCCOc3ccc(Cl)cc3)cc(=O)n(CCCO)c2CC1(C)C (stereo not given) | 22.7% | 0% | 
CC(C)=CCC/C(C)=C/CC1Cc2c(OC(=O)Nc3ccc(F)cc3)cc(=O)n(CCCO)c2CC1(C)C (stereo not given) | 43.9% | 6.2% | 
COc1ccccc1NC(=O)Oc1cc(=O)n(CCCO)c2c1CC(CC=C(C)C)C(C)(C)C2 (stereo not given) | 71.1% | 0% | 7.7 µM
CC(C)=CCC1Cc2c(OC(=O)Nc3ccc(F)c(Cl)c3)cc(=O)n(CCCO)c2CC1(C)C (stereo not given) | 79.8% | 0% | 6.8 µM
CC(C)=CCC1Cc2c(OCCCNS(=O)(=O)c3ccc([N+](=O)[O-])cc3)cc(=O)n(CCCO)c2CC1(C)C (stereo not given) | 47.7% | 17.3% | 
CC(C)=CCC/C(C)=C/CC1Cc2c(OCCCOc3ccc(Cl)cc3)cc(=O)n(CCCO)c2CC1(C)C (stereo not given) | 25.2% | 0% | 
CC(C)=CCC/C(C)=C/CC1Cc2c(OC(=O)Nc3cccc(F)c3)cc(=O)n(CCCO)c2CC1(C)C (stereo not given) | 52.3% | 0% | 
CC(C)=CCC1Cc2c(OC(=O)Nc3ccc(F)cc3)cc(=O)n(CCCO)c2CC1(C)C (stereo not given) | 71.2% | 0% | 7.7 µM
CC(C)=CCC1Cc2c(OC(=O)Nc3ccccc3F)cc(=O)n(CCCO)c2CC1(C)C (stereo not given) | 52.3% | 0% | 
CC(C)=CCC1Cc2c(OC(=O)Nc3cccc(C(F)(F)F)c3)cc(=O)n(CCCO)c2CC1(C)C (stereo not given) | 54.3% | 0% | 
CC(C)=CCC1Cc2c(O)cc(=O)n(CCCO)c2CC1(C)C (stereo not given) | 25.6% | 0% | 
CC(C)=CCC/C(C)=C/CC1Cc2c(OC(=O)Nc3ccccc3F)cc(=O)n(CCCO)c2CC1(C)C (stereo not given) | 71.6% | 0% | 7.4 µM
CC(C)=CCC/C(C)=C/CC1Cc2c(OC(=O)Nc3ccc(F)cc3F)cc(=O)n(CCCO)c2CC1(C)C (stereo not given) | 33.7% | 15.6% | 
CC(C)=CCC/C(C)=C/CC1Cc2c(OC(=O)Nc3ccc(F)c(F)c3)cc(=O)n(CCCO)c2CC1(C)C (stereo not given) | 43.7% | 4.8% | 
CC(C)=CCC/C(C)=C/CC1Cc2c(OCCCOc3ccc([N+](=O)[O-])cc3)cc(=O)n(CCCO)c2CC1(C)C (stereo not given) | 65.1% | 9.8% | 6.3 µM

Structure (SMILES) | inhibition at 10 µM (PANC-1 [1]) | inhibition at 10 µM (PANC-1 [2]) | IC50 (PANC-1 [3])
COc1ccc(C(=O)NCCCOc2cc(=O)n(CCCO)c3c2CC(CC=C(C)C)C(C)(C)C3)cc1 (stereo not given) | 55.5% | 2.5% | 
CC(C)=CCC1Cc2c(OC(=O)Nc3ccc(F)cc3F)cc(=O)n(CCCO)c2CC1(C)C (stereo not given) | 69.7% | 0% | 
CC(C)=CCC/C(C)=C/CC1Cc2c(OC(=O)Nc3ccc(F)c(Cl)c3)cc(=O)n(CCCO)c2CC1(C)C (stereo not given) | 25% | 0% | 
CC(C)=CCC/C(C)=C/COc1cc(=O)n(CCCO)c2c1CC(C/C=C(\C)CCC=C(C)C)C(C)(C)C2 (stereo not given) | 15.8% | 3.1% | 
COc1ccc(C(=O)NCCCOc2cc(=O)n(CCCO)c3c2CC(C/C=C(\C)CCC=C(C)C)C(C)(C)C3)cc1 (stereo not given) | 45.7% | 14.1% | 
CC(C)=CCC1Cc2c(OC(=O)Nc3ccc(Cl)cc3)cc(=O)n(CCCO)c2CC1(C)C (stereo not given) | 49.8% | 0% | 
CC(C)=CCC/C(C)=C/CC1Cc2c(OC(=O)Nc3cccc(C(F)(F)F)c3)cc(=O)n(CCCO)c2CC1(C)C (stereo not given) | 44% | 6.7% | 
COc1ccc(NC(=O)Oc2cc(=O)n(CCCO)c3c2CC(CC=C(C)C)C(C)(C)C3)cc1 (stereo not given) | 3.7% | 0% | 
CC(C)=CCC1Cc2c(OCCCNS(=O)(=O)c3ccc(Br)cc3)cc(=O)n(CCCO)c2CC1(C)C (stereo not given) | 19.5% | 3.7% | 
CC(C)=CCC/C(C)=C/CC1Cc2c(OCCCNS(=O)(=O)c3ccc(C(F)(F)F)cc3)cc(=O)n(CCCO)c2CC1(C)C (stereo not given) | 26.4% | 0% | 
CC(C)=CCOc1cc(=O)n(CCCO)c2c1CC(CC=C(C)C)C(C)(C)C2 (stereo not given) | 20.7% | 7.5% | 
CC(C)=CCC1Cc2c(OCCCNC(=O)c3cccs3)cc(=O)n(CCCO)c2CC1(C)C (stereo not given) | 33.6% | 5.6% | 
COc1cccc(NC(=O)Oc2cc(=O)n(CCCO)c3c2CC(CC=C(C)C)C(C)(C)C3)c1 (stereo not given) | 16.2% | 0% | 
CC(C)=CCC1Cc2c(OCCCNS(=O)(=O)c3ccc(C(F)(F)F)cc3)cc(=O)n(CCCO)c2CC1(C)C (stereo not given) | 29.6% | 0% | 
CC(C)=CCC/C(C)=C/CC1Cc2c(OCC=C(C)C)cc(=O)n(CCCO)c2CC1(C)C (stereo not given) | 30.3% | 15.9% | 
CC(C)=CCC/C(C)=C/CC1Cc2c(OCCCNS(=O)(=O)c3ccc(Cl)cc3)cc(=O)n(CCCO)c2CC1(C)C (stereo not given) | 14.5% | 16.1% | 
CC(C)=CCC1Cc2c(OC(=O)Nc3cccc(F)c3)cc(=O)n(CCCO)c2CC1(C)C (stereo not given) | 66.1% | 0% | 
CC(C)=CCC1Cc2c(OC(=O)Nc3ccc(F)c(F)c3)cc(=O)n(CCCO)c2CC1(C)C (stereo not given) | 76.7% | 0% | 7.3 µM
CC(C)=CCC/C(C)=C/COc1cc(=O)n(CCCO)c2c1CC(CC=C(C)C)C(C)(C)C2 (stereo not given) | 10.6% | 18.4% | 
CC(C)=CCC1Cc2c(OCCCNC(=O)c3ccco3)cc(=O)n(CCCO)c2CC1(C)C (stereo not given) | 2.1% | 4.3% | 
COc1ccccc1NC(=O)Oc1cc(=O)n(CCCO)c2c1CC(C/C=C(\C)CCC=C(C)C)C(C)(C)C2 (stereo not given) | 53% | 0% | 
CC(C)=CCC/C(C)=C/CC1Cc2c(OCCCNS(=O)(=O)c3ccc(Br)cc3)cc(=O)n(CCCO)c2CC1(C)C (stereo not given) | 15.2% | 0% | 
COc1cccc(NC(=O)Oc2cc(=O)n(CCCO)c3c2CC(C/C=C(\C)CCC=C(C)C)C(C)(C)C3)c1 (stereo not given) | 47% | 11.3% | 
CC(C)=CCC/C(C)=C/CC1Cc2c(OC(=O)Nc3ccc(Cl)c(Cl)c3)cc(=O)n(CCCO)c2CC1(C)C (stereo not given) | 20% | 0% | 
CC(C)=CCC/C(C)=C/CC1Cc2c(OC(=O)Nc3ccc(Cl)cc3)cc(=O)n(CCCO)c2CC1(C)C (stereo not given) | 47.2% | 4.3% | 
CCOc1cc(=O)n(CCCO)c2c1CC(CC=C(C)C)C(C)(C)C2 (stereo not given) | 66.5% | 16.6% | 7.3 µM
CC(C)=CCC1Cc2c(OCc3ccccc3)cc(=O)n(CCCO)c2CC1(C)C (stereo not given) | -0.3% | 11.1% | 
